ChEMBL document CHEMBL1201862, “PubChem BioAssay data set” (2004)
Activity calls are given as the source filed them.

What was measured:
[1] = target: Dual specificity tyrosine-phosphorylation-regulated kinase 1A (Rattus norvegicus, UniProt Q63470); type: biochemical, Homo sapiens
[2] = Fluorescence-based cell-based high throughput dose response assay for inhibitors of the interaction of nucleotide-binding oligomerization domain containing 2 (NOD2) and the receptor-interacting serine-threonine kinase 2 (RIPK2).; type: functional, Homo sapiens
[3] = target: T1, Sentrin-specific protease 8 (Homo sapiens, UniProt Q96LD8); type: functional;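 note: luminescence read-out of SENP8 inhibition, dose-response confirmation following an ultra-high-throughput screen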
T1 sequence (Q96LD8 whole entry): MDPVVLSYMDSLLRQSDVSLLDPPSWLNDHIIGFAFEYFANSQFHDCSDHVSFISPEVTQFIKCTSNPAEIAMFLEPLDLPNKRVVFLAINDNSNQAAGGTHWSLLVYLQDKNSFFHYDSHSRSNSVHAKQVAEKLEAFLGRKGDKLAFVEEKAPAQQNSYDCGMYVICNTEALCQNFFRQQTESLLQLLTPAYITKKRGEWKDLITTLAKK

[4] = target: T2, Sentrin-specific protease 7 (Homo sapiens, UniProt Q9BQF6); type: functional;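 note: Luminescence-based dose-response confirmation of ultra-high-throughput screening hits, measuring inhibition of SENP7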
T2 sequence (Q9BQF6 whole entry): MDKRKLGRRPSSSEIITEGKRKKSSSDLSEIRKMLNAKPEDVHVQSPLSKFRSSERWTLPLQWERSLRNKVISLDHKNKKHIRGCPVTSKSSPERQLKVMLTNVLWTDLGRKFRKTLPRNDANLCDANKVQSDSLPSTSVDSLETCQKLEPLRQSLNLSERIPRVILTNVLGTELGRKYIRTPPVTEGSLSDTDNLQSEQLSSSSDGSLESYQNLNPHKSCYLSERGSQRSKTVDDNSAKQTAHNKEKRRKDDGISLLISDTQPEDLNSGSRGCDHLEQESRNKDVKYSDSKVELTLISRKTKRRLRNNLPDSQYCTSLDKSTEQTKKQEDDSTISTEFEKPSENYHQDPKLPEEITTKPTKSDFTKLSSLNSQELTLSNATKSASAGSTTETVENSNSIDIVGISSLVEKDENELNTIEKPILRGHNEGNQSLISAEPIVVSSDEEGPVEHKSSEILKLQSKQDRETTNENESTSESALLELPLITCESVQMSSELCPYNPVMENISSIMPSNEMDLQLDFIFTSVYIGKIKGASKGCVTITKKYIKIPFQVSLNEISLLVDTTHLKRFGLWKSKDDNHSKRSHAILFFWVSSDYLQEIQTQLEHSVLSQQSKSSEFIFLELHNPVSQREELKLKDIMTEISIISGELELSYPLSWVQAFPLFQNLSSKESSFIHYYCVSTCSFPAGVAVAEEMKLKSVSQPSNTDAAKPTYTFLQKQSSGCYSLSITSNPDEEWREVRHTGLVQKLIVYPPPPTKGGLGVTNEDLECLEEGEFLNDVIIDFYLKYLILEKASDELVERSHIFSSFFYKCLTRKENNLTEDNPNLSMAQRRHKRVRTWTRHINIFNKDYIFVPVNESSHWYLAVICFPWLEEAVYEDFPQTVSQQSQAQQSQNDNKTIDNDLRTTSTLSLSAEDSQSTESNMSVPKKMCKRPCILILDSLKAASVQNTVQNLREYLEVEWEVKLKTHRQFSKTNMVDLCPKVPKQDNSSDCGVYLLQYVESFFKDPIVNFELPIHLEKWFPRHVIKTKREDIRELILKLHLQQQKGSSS

[5] = target: T3, Sentrin-specific protease 6 (Homo sapiens, UniProt Q9GZR1); type: functional;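 note: Luminescence-based dose-response confirmatory assay of SENP6 inhibition, following up an ultra-high-throughput screen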
T3 sequence (Q9GZR1 whole entry): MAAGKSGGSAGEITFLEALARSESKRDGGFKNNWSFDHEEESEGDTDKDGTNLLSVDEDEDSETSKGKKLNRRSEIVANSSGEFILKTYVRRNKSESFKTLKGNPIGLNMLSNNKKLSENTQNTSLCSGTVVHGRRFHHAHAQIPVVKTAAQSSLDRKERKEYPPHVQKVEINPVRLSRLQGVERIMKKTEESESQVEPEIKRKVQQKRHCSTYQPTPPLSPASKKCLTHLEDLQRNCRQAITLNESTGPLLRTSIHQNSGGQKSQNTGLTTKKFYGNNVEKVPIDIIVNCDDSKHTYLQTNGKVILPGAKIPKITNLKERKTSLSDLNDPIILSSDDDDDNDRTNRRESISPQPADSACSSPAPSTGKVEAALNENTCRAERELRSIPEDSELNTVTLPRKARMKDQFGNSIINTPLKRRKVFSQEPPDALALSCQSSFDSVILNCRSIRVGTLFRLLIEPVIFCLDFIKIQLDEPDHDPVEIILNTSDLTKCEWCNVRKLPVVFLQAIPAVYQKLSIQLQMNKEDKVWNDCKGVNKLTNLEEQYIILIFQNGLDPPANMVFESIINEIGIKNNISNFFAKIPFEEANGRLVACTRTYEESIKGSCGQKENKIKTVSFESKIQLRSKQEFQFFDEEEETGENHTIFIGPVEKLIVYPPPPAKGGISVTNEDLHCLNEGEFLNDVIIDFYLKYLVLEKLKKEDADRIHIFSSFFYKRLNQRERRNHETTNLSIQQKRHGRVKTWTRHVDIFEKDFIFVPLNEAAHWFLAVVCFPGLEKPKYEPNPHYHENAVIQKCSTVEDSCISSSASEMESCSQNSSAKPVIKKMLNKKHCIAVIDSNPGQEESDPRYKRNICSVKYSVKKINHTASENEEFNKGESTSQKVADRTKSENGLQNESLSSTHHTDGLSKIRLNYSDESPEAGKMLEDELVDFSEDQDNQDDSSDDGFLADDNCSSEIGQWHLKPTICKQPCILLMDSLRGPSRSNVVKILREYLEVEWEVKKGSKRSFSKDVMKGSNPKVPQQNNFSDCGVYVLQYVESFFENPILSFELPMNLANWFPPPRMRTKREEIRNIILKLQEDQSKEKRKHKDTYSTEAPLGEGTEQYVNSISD

Caspase-3 = target: T4, Caspase-3 (Homo sapiens, UniProt P42574); type: functional;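 note: Dose-response selectivity test against caspase-3 for candidate inhibitors of sentrin-specific proteases (SENPs)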
T4 sequence (P42574 whole entry): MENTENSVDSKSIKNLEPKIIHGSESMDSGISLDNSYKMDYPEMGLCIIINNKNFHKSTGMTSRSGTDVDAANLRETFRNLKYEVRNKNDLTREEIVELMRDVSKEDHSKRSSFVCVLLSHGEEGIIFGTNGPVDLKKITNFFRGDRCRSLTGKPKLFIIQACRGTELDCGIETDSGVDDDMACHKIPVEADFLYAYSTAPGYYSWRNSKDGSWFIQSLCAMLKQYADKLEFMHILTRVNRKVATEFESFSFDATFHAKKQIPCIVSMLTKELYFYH

[6] = intracellular Trypanosoma cruzi inhibitors in host cells – cell-based, plate reader, cherry-pick samples, set 3, dose response (AID 651818); type: functional;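 note: compounds incubated with infected cells for about four days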
[7] = target: T5, Short transient receptor potential channel 4 (Mus musculus, UniProt Q9QUQ5); assay: mouse TRPC4 channel activators, dose response, cell-based, HEK293 TRPC4/mu-opioid, Fluo-4 calcium (AID 434937); type: functional
T5 sequence (Q9QUQ5 whole entry): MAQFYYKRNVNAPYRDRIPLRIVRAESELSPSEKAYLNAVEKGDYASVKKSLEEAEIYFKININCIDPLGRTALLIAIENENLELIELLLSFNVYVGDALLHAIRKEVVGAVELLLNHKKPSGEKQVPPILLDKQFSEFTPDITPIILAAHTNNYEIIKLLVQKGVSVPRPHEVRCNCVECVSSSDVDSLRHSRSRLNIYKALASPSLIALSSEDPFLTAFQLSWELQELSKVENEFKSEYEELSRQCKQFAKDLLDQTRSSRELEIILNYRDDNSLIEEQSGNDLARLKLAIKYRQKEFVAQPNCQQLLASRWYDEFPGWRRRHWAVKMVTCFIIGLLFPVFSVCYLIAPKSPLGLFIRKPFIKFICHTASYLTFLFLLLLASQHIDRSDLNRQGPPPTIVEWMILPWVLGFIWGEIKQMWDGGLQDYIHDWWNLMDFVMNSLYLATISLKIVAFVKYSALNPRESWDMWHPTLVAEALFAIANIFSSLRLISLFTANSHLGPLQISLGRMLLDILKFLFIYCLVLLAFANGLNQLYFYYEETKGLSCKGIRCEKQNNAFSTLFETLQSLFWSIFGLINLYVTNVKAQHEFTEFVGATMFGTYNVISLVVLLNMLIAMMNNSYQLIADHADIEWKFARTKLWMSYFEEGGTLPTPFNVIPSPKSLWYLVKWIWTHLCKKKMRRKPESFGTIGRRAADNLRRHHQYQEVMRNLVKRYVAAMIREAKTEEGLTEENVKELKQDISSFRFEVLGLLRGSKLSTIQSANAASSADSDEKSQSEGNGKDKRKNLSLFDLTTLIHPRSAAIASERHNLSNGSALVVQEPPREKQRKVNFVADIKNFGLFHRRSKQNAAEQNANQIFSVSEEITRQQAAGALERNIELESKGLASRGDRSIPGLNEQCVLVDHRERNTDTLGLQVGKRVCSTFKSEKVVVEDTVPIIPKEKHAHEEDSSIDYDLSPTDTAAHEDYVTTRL

[8] = target: T6, High affinity choline transporter 1 (Homo sapiens, UniProt Q9GZV3); assay: CHT inhibitors, dose response, cell-based, 5-point CRC, membrane potential dye (AID 504840); type: functional
T6 sequence (Q9GZV3 whole entry): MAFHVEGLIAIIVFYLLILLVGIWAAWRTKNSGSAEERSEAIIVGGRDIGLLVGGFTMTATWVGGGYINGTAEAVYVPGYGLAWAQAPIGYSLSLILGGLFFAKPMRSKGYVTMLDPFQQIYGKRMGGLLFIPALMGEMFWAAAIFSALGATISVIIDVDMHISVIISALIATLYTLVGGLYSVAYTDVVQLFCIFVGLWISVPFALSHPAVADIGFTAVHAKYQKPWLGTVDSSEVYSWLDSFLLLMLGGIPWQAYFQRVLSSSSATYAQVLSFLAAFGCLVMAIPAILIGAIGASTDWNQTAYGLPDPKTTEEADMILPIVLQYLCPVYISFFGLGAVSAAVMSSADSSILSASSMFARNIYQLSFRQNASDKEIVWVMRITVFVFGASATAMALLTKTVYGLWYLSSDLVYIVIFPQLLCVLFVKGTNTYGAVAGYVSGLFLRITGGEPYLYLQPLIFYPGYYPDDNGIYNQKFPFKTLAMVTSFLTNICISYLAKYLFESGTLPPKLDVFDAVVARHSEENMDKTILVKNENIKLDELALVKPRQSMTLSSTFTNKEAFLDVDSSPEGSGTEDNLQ

[9] = target: T7, Microphthalmia-associated transcription factor (Homo sapiens, UniProt O75030); assay: TRPM1 promoter luciferase signal decrease, dose response, MITF inhibitor project, cell-based, SK-MEL-5, cherry-picked, set 3 (AID 493073); type: functional
T7 sequence (O75030 whole entry): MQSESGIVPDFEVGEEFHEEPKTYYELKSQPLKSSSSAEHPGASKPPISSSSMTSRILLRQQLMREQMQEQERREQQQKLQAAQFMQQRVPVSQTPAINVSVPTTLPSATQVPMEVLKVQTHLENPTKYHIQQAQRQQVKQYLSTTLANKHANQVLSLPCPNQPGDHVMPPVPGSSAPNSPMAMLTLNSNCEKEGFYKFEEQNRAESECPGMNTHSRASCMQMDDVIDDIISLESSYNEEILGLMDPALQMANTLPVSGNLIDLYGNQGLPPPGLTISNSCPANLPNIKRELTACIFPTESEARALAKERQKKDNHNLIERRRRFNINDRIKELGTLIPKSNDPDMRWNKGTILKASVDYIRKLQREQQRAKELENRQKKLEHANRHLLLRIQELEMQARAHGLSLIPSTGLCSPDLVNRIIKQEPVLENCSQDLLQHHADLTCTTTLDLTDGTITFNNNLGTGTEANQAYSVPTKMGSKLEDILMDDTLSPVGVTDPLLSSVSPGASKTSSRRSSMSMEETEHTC

With `CCCN(CCC)CCNC(=O)c1cc2c(=O)n(C)c3ccccc3c2n1C` the AC50 [1] was 13.4 µM (active).
In the case of `CC(=O)OCC12CC(OC(=O)CC(C)C)C(C)=CC1OC1C(O)C(OC(C)=O)C2(C)C12CO2` (stereo not drawn), the IC50 [2] is reported as 49.8 µM (inactive).
With `Cc1n[nH]c(O)c1N=Nc1ccc(Br)c(Cl)c1` the IC50 [3] was 2.43 µM (active), the IC50 [4] was 2.2 µM (active) and the IC50 [5] was 3.79 µM (active). For the same compound, the IC50 (Caspase-3) was 2.41 µM (active).
For `C[C@@H]1CCCCO[C@H](CN(C)C(=O)Nc2ccccc2)[C@@H](C)CN([C@H](C)CO)C(=O)c2cc(NC(=O)Nc3ccc(C(F)(F)F)cc3)ccc2O1`, the AC50 [6] was 4.2 µM (active).
In the case of `Cc1ccc(S(=O)(=O)N(C)C[C@H]2Oc3c(NC(=O)c4ccncc4)cccc3C(=O)N([C@H](C)CO)C[C@@H]2C)cc1`, the AC50 [6] is reported as 6.3 µM (active).
For `C[C@@H]1CN([C@H](C)CO)C(=O)Cc2cc(NC(=O)Cc3ccccc3)ccc2O[C@@H]1CN(C)Cc1ccc(-c2ccccc2)cc1`, the AC50 [6] was 6.35 µM (active).
In the case of `C[C@@H]1CN([C@@H](C)CO)C(=O)c2cccc(NS(=O)(=O)c3ccc(Cl)cc3)c2O[C@@H]1CN(C)Cc1ccc(-c2ccccc2)cc1`, the AC50 [6] is reported as 2.97 µM (active).
In the case of `N=C1C[N+](CC23CC4CC(CC(C4)C2)C3)=NO1`, the EC50 [7] is reported as 1.06 µM (active) and the IC50 [8] is reported as 13.5 µM (active).
In the case of `Cc1[nH]n(-c2ccccc2)c(=O)c1N=Nc1cccc(C(=O)O)c1`, the AC50 [9] is reported as 8.07 µM (active), the IC50 [3] is reported as 35.5 µM (active) and the IC50 [4] is reported as 15.2 µM (active). The IC50 [5] was 21.5 µM (active) and the IC50 (Caspase-3) was > 100 µM (inactive).
With `COc1ccc2[nH]c3c(c2c1)CCNC3=O` the AC50 [1] was 0.845 µM (active).
